Results as given in the OligoGym collection.
Where “and” joins values, the source holds several entries; their conditions need not be identical. Equal entries are not always repeated. After the bases stand the sugars from the 5' end (letter, count) and the backbone: PS all phosphorothioate, else s phosphorothioate and o phosphodiester by linkage. Methylation of C is not given here. e = 2'-O-(2-methoxyethyl) (MOE); k = constrained ethyl (cEt); d = 2'-deoxy (DNA)

Target: IRF4
Details: ASO, MM.1R, 0.0625 µM

Row | Sequence | target mRNA inhibition
1 | TGGGATTATATACTGG (sugars kkddddddddddkeke, PS) | 21%
2 | TGTGTATTACTCTTAG (sugars kkdddddddddkekek, PS) | 19%
3 | TTGGTTGGCTGGTCTT (sugars k3 d10 k3, PS) | 40%

Same assay, conditions: ASO, MM.1R, 0.074 µM

Row | Sequence | target mRNA inhibition
4 | TGCTTATCAATGCCAA (sugars k3 d10 k3, PS) | 12%

Same assay, conditions: ASO, MM.1R, 0.222 µM

Row | Sequence | target mRNA inhibition
5 | TGCTTATCAATGCCAA (sugars k3 d10 k3, PS) | 12%

Same assay, conditions: ASO, MM.1R, 0.25 µM

Row | Sequence | target mRNA inhibition
6 | TGGGATTATATACTGG (sugars kkddddddddddkeke, PS) | 43%
7 | TGTGTATTACTCTTAG (sugars kkdddddddddkekek, PS) | 32%
8 | TTGGTTGGCTGGTCTT (sugars k3 d10 k3, PS) | 58%

Same assay, conditions: ASO, MM.1R, 0.666 µM

Row | Sequence | target mRNA inhibition
9 | TGCTTATCAATGCCAA (sugars k3 d10 k3, PS) | 16%

Same assay, conditions: ASO, MM.1R, 1 µM

Row | Sequence | target mRNA inhibition
10 | TGCAGCACCGTGGTGC (sugars k3 d10 k3, PS) | -1%
11 | TGCCATGGACAAGTTT (sugars k3 d10 k3, PS) | -18%
12 | TGCGGAGGTTCCTTGA (sugars k3 d10 k3, PS) | 12%
13 | TGCGGCTCCGGCGACG (sugars k3 d10 k3, PS) | -20%
14 | TGCTATTAAACTGATT (sugars k3 d10 k3, PS) | -3%
15 | TGCTGCAAATCCCTCT (sugars k3 d10 k3, PS) | 21%
16 | TGCTTATCAATGCCAA (sugars k3 d10 k3, PS) | 35% and 31%
17 | TGCTTGAGGTTTTCCT (sugars e1 k2 d9 k2 e2, PS) | 35%
18 | TGCTTGAGGTTTTCCT (sugars k3 d9 k3 e1, PS) | 46%
19 | TGCTTGAGGTTTTCCT (sugars kdddddddddkekeke, PS) | 9%
20 | TGCTTGAGGTTTTCCT (sugars kkkddddddddkekek, PS) | 27%
21 | TGGAGAAGTCCCGTGG (sugars k3 d10 k3, PS) | -9%
22 | TGGGATGCCACCATCC (sugars k3 d10 k3, PS) | -2%
23 | TGGGATTATATACTGG (sugars kkddddddddddkeke, PS) | 68% and 60%
24 | TGGGTATTTATAACCG (sugars k3 d10 k3, PS) | 4%
25 | TGGTTGGCTGGTCTTT (sugars kkdddddddddkdkdk, PS) | 51%
26 | TGTAACGCACCCGCAG (sugars k3 d10 k3, PS) | -4%
27 | TGTAGTATGAGAAACG (sugars kddddddddddkekek, PS) | 7%
28 | TGTAGTATGAGAAACG (sugars kdddddddddkekeke, PS) | 14%
29 | TGTAGTATGAGAAACG (sugars kkdddddddddkekek, PS) | 12%
30 | TGTAGTATGAGAAACG (sugars kkkdddddddddkeke, PS) | 29%
31 | TGTAGTATGAGAAACG (sugars kkkddddddddkekek, PS) | 23%
32 | TGTATCATGCATACCA (sugars k3 d10 k3, PS) | 3%
33 | TGTCACCTGGCAACCT (sugars k3 d10 k3, PS) | -4%

Row | Sequence | target mRNA inhibition
34 | TGTGATAGCTGAGCTG (sugars kkddddddddddkeke, PS) | 16%
35 | TGTGATAGCTGAGCTG (sugars kkdddddddddkekek, PS) | 17%
36 | TGTGCAAAACCAGTAC (sugars k3 d10 k3, PS) | -20%
37 | TGTGTATTACTCTTAG (sugars kddddddddddkekek, PS) | 58% and 56%
38 | TGTGTATTACTCTTAG (sugars kdddddddddkekeke, PS) | 32% and 52%
39 | TGTTACCGATGCTTCA (sugars kkddddddddddkeke, PS) | 25% and 42%
40 | TGTTACCGATGCTTCA (sugars kkdddddddddkekek, PS) | 28% and 21%
41 | TTATATACTGGTTGGT (sugars kkddddddddddkeke, PS) | 47%
42 | TTATGTTAGCCAATTC (sugars kdddddddddkekeke, PS) | 9% and 2%
43 | TTCATGTAAAGTCTGC (sugars k2 d9 e3 k2, PS) | 27% and 35%
44 | TTCATGTAAAGTCTGC (sugars kdddddddddkekeke, PS) | 9% and 3%
45 | TTCATGTAAAGTCTGC (sugars kkdddddddddekeke, PS) | 32% and 39%
46 | TTCATGTAAAGTCTGC (sugars kkdddddddddkdkdk, PS) | 14% and 35%
47 | TTCTTTATAGTAGGTA (sugars k3 d10 k3, PS) | 15%
48 | TTGATGTGATAGCTGA (sugars k3 d10 k3, PS) | 55%
49 | TTGATGTGATAGCTGA (sugars kkddddddddddkeke, PS) | 11%
50 | TTGGTACGGGATTTCC (sugars k3 d10 k3, PS) | 34%
51 | TTGGTTGGCTGGTCTT (sugars k3 d10 k3, PS) | 76% and 72%
52 | TTGGTTGGCTGGTCTT (sugars kkddddddddddkeke, PS) | 27%
53 | TTGGTTGGCTGGTCTT (sugars kkdddddddddekeke, PS) | 34%
54 | TTTAAAATATCGCCCA (sugars k3 d10 k3, PS) | -1%
55 | TTTATCATCCGAAAAG (sugars k3 d10 k3, PS) | 7%
56 | TTTATGTTAGCCAATT (sugars k2 d9 e3 k2, PS) | 3% and 21%

Same assay, conditions: ASO, MM.1R, 2 µM

Row | Sequence | target mRNA inhibition
57 | TGCTTATCAATGCCAA (sugars k3 d10 k3, PS) | 50%

Same assay, conditions: ASO, MM.1R, 4 µM

Row | Sequence | target mRNA inhibition
58 | TGCTTATCAATGCCAA (sugars k3 d10 k3, PS) | 69% and 66%
59 | TGGGATTATATACTGG (sugars kkddddddddddkeke, PS) | 83%
